According to patent US8455523B2, “Compositions and methods for treating hyperlipidemias” (The Research Foundation of State University of New York, priority 2010, dated 2013):

Test system: Reversa mice
Settings: for plasma cholesterol / plasma triglycerides: MTP deficient (plpC) Reversa mice, oral 30 days
Experimental: FIG. 11. Reversa animals were injected with plpC every other day for one week. Lovastatin, T-090317 and WY14643 were administered by oral gavage everyday for 30 days after the first injection. Animals were sacrificed on day 30 and plasma and livers were harvested and analyzed. * represent comparison to PBS injected animals and # represent comparisons to plpC control.
Animals: Mttp^tm2Sgy LdIr^tm1Her Apob^tm2Sgy Tg(Mx1-cre)1Cgn/J mice (Reversa) (stock number 004192) were obtained from Jackson Laboratories. Male reversa mice were used to study the effect of mttp gene deletion on plasma and tissue lipids. These animals are transgenic for apolipoprotein B, LDLR^−/− and floxed at exon 1 of the mttp locus. In addition, these mice express cre recombinase under the control of the Mx1 promoter, which is induced after intraperitoneal injection of polyinosinic polycytidylic ribonucleic acid (plpC—Sigma) in the liver, spleen and intestine. Injection of plpC activates the cre recombinase and deletes the mttp gene in the liver and intestines. Reversa mice were injected with either PBS or plpC. Mice injected with plpC were orally gavaged with DMSO (Sigma-Aldrich D8418), DMSO+Lovastatin (50 mg/kg/day) (Calbiochem 438186), DMSO+T0901317 (50 mg/kg/day) (Calbiochem 575310), or DMSO+WY14643 (10 mg/kg/day) (Calbiochem 681725). Mice injected with plpC were also injected with either PBS or Ω-3 fatty acids (SUNY Downstate Medical Center). All animals were given supplemental treatments for 30 days.
All animals were kept in 07:00-19:00 h lighting schedule. […] Food was withdrawn 16 h before the sacrifice of the mice. On the day of the experiment, mice were anesthetized and blood was collected from the heart. Liver was collected, washed in ice-cold PBS, cut into small pieces and used for lipid extraction, histological staining, to measure different protein activities/quantities and for mRNA analysis. Lipids were extracted from the tissue homogenates following the Bligh and Dyer method. Triglyceride (Infinity TM Triglyceride, TR22421) and total cholesterol (Infinity TM Cholesterol, TR13421) levels in the tissues were determined using commercial kits (Thermo Scientific). Free cholesterol and free fatty acid levels were measured using kits from Wako Chemicals (Germany). Esterified cholesterol was calculated by subtracting the free cholesterol from the total cholesterol.
To determine whether accumulation of hepatic triglyceride and free cholesterol is related to increases in plasma AST/ALT, we sought to reduce these lipids using different chemical compounds of known physiologic effects. Mice injected with plpC were orally gavaged with DMSO, DMSO+Lovastatin (50 mg/kg/day), DMSO+T0901317 (50 mg/kg/day), or DMSO+WY14643 (10 mg/kg/day). Lovastatin (Lova), an HMG-CoA reductase (HMGR) inhibitor, and T0901317 (T0), an LXR agonist, are expected to decrease hepatic free cholesterol by inhibiting endogenous cholesterol synthesis and increasing cholesterol efflux, respectively. WY14643 (WY), a PPARα agonist, increases β-oxidation of fatty acids and lowers hepatic triglycerides.
To evaluate the efficacy of Ω-3 FA in reducing hepatic triglyceride, plpC injected mice were treated with intraperitoneal injection of Ω-3 FA (3 mg/kg/2 day) or Ω-3 FA and Lova.

[1] = plpC-injected Reversa mice, Lova 50, T0 50, WY 10 mg/kg/day oral or Ω-3 FA 3 mg/kg/2 day ip, vs plpC control

SMILES	plasma cholesterol	plasma triglycerides	hepatic free and total cholesterol [1]	hepatic triglyceride [1]
Cc1cccc(Nc2cc(Cl)nc(SCC(=O)O)n2)c1C [WY14643]	no effect	no effect	no effect	–
CC[C@H](C)C(=O)O[C@H]1C[C@@H](C)C=C2C=C[C@H](C)[C@H](CC[C@@H]3C[C@@H](O)CC(=O)O3)[C@H]21 [lovastatin]	significantly reduced	no effect	significantly reduced	no effect
